Assay results from patent US20180371076A1, “MATERNAL TH17 CELLS AND PSYCHIATRIC DISORDERS” (New York University, priority 2017, published 2018).

Test system: offspring of pregnant mice (MIA mouse model)
Assay: Open field test in adult offspring
Assay type: in vivo
Description: Maternal Immune Activation. Mice were mated overnight and females were checked daily for the presence of seminal plugs, noted as embryonic day 0.5 (E0.5). On E12.5, pregnant female mice were weighed and injected with a single dose (20 mg/kg; i.p.) of poly(I:C) (Sigma Aldrich) or PBS vehicle. Each dam was returned to its cage and left undisturbed until the birth of its litter. All pups remained with the mother until weaning on postnatal day 21 (P21), at which time mice were group housed at maximum 5 per cage with same-sex littermates. For the IL-17 cytokine blockade experiment, monoclonal IL-17a blocking antibody (clone 50104; R&D) or isotype control antibody (IgG2a, clone 54447; R&D) was administered 6 h before maternal immune activation (FIG. 2) via i.p. route (500 μg/animal) or 2 days after maternal immune activation (FIG. 5) via i.p. route (500 μg/animal).
Open field test. Adult mice were placed in a 50×50 cm white Plexiglas box. Activity was recorded by a video camera and data was analyzed with Ethovision software (Noldus). The software allows display of the paths taken by the mice, and it measures the total distance moved into the center of the arena in a 10 min session.

poly(I:C)
total distance covered in open field (offspring of MIA mothers): did not affect the total distance covered | time in the center of an open field (offspring of poly(I:C)-injected WT or RORγ/γt HET animals vs PBS-injected WT): significantly reduced time in the center
